Calls of active or inactive are those of the source. The calls are words filed in the database; no cut-off is given here. Some results are limits rather than exact numbers.

For one experiment, the target named is T1, Aromatase (Homo sapiens, UniProt P11511).
T1 sequence (P11511 whole entry): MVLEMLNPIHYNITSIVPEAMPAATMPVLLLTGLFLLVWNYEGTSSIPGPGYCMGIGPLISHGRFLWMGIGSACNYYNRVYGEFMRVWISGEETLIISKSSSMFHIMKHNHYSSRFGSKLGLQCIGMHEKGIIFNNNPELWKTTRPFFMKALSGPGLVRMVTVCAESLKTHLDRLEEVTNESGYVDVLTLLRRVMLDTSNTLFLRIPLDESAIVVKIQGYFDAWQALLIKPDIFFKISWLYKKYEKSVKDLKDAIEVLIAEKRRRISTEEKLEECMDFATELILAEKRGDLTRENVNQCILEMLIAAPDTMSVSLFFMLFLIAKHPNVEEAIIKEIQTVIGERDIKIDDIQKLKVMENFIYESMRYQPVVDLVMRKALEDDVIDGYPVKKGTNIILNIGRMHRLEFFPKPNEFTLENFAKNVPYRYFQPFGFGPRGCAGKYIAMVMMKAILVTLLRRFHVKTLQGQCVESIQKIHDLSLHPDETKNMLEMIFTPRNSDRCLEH
Description: Inhibition of aromatase.

In a further experiment the test system is LNCaP. Description: Antiproliferative activity against human LNCaP 1740 cells assessed as cell growth after 4 days by sulforhodamine B assay. It counts as functional, cell-based. The conditions noted are these: 96 h. In general terms: The SRB assay estimates cell density from bound dye.
In another experiment the test system is HepG2. Description: Antiproliferative activity against human HepG2 cells assessed as cell growth upto 65 uM after 4 days by sulforhodamine B assay. It counts as functional, cell-based.
For another experiment, the system named is Lu1. Description: Antiproliferative activity against human LU1 cells assessed as cell growth upto 65 uM after 4 days by sulforhodamine B assay. It counts as functional, cell-based.
Another experiment has as its target T2, Cytochrome P450 2C8 (Homo sapiens, UniProt P10632).
T2 sequence (P10632 whole entry): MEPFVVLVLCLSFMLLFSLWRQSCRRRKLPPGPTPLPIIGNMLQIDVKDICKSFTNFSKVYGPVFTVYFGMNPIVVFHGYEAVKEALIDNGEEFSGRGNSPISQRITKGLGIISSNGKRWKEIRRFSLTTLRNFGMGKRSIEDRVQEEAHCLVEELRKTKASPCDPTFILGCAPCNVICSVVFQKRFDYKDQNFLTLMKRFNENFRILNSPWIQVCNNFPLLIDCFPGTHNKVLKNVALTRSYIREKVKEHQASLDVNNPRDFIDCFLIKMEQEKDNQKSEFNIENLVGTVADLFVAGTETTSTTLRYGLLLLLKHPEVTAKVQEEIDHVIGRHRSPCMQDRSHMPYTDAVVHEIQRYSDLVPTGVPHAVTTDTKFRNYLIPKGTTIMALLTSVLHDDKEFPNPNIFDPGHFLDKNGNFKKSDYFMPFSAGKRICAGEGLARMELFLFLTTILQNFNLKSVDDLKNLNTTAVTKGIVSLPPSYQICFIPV
Description: Inhibition of CYP2C8. It counts as ADME.

For another experiment, the target named is Cytochrome P450 3A4 (Homo sapiens, UniProt P08684). Description: Inhibition of CYP3A4. The format is ADME.
A further experiment deals with T3, Cytochrome P450 1A1 (Homo sapiens, UniProt P04798).
T3 sequence (P04798 whole entry): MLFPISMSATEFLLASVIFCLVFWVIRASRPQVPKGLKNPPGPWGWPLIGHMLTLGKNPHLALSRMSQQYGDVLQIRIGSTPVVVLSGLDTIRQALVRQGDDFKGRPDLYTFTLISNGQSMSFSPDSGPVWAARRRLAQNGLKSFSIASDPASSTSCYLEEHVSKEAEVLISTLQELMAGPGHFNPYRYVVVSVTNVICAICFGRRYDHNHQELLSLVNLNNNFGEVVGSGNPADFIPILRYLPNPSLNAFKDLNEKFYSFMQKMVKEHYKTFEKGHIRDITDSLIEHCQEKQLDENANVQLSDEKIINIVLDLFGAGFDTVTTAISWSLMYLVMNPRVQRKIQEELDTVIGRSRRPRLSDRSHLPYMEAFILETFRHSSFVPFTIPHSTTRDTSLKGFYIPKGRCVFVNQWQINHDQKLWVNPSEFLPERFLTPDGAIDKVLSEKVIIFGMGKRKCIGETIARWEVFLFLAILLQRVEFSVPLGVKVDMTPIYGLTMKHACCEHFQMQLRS
Description: Inhibition of CYP1A1. The format is ADME.

The next experiment has as its system MCF7. Description: Antiproliferative activity against human MCF7 cells assessed as cell growth after 4 days by sulforhodamine B assay. It counts as functional, cell-based. The conditions noted are these: MCF7, 96 h.

Cytochrome P450 3A4, sequence (P08684 whole entry): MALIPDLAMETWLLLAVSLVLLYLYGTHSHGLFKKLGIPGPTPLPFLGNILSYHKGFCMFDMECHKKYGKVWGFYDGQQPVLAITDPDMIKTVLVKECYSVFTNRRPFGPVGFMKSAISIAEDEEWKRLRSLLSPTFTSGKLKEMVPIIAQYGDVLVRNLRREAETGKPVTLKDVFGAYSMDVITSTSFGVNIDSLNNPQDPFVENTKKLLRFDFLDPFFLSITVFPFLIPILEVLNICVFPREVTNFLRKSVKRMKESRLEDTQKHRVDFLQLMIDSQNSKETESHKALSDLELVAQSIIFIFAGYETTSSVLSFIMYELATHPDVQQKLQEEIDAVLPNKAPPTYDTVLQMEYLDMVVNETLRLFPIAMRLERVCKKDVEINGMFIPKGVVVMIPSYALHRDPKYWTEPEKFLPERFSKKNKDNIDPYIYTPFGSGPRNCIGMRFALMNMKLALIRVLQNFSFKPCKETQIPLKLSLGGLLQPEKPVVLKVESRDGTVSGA

One may read the IC50 as the concentration at which inhibition is half-maximal. `C[C@@H]1O[C@@H](O[C@H]2[C@H](Oc3cc(O)c4c(c3)O[C@H](c3ccc(O)cc3)CC4=O)O[C@H](CO)[C@@H](O)[C@@H]2O)[C@H](O)[C@H](O)[C@H]1O` [NARINGIN]: the 50% inhibitory concentration (IC50) against Aromatase turned out to be 5 µM.
On to `CCCCC[C@H]1OC(=O)c2ccc(OC)cc2[C@H]1OC(C)=O`, for which the IC50 in the experiment on LNCaP was 57.5 µM; at Cytochrome P450 2C8, more than 65 µM; against Cytochrome P450 3A4 it was more than 65 µM; on Cytochrome P450 1A1, 38 µM; in the experiment on MCF7, 66.9 µM. Moreover, the result in the experiment on HepG2 and in the experiment on Lu1 was inactive.

For the origin of these results see ChEMBL document CHEMBL1157393, “Selective inhibition of aromatase by a dihydroisocoumarin from Xyris pterygoblephara” (J Nat Prod, 2008).
